In patent publication US11753445B2, “Therapeutic peptides” (COHBAR, INC., priority 2016, dated 2023):
Where “and” joins values, the source holds several entries; their conditions need not be identical. Identical values can stand only once.

How the values were obtained:
3T3-L1 Adipocytes [1] = assay: Free fatty acid levels in cultured mouse 3T3-L1 adipocytes, isoproterenol stimulated (Example 2); assay type: cell-based; details: test peptides 25 μM; isoproterenol 1 nM
Summary of the method: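 Release of free fatty acids, read at 540 nm, was stimulated with 1 nM isoproterenol for 3 h in mouse 3T3-L1 adipocytes (12–17 days of differentiation). Cells were pre-exposed to 25 μM peptide for 18–20 h plus 1 h, with peptide kept in during stimulation. Values are background-subtracted and normalised to isoproterenol alone.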

3T3-L1 Adipocytes [2] = assay: Free fatty acid levels in cultured mouse 3T3-L1 adipocytes, forskolin stimulated (Example 3); assay type: cell-based; details: test peptides 25 μM; forskolin 1 μM
Protocol: Mouse 3T3-L1 cells were seeded at 1,000-20,000 cells per well on 96-well, 48-well, or 24-well plates in Pre-adipocyte Medium (Zen-Bio, Durham, N.C.) and grown to confluence at 37° C. in a humidified atmosphere of 5% CO2/95% air. Two days after confluence, cells were placed in Adipocyte Differentiation Medium (Zen-Bio, Durham, N.C.) and cultured for three additional days at 37° C. in a humidified atmosphere of 5% CO2/95% air. The culture media was then replaced with Adipocyte Maintenance Medium (Zen-Bio) and the cells were maintained for an additional 9-14 days at 37° C. in a humidified atmosphere of 5% CO2/95% air with partial medium replacement every other day. Following 12-17 days of differentiation, test peptides were added at a final concentration of 25 μM and incubated for 18-20 hours in Adipocyte Maintenance Medium at 37° C. in a humidified atmosphere of 5% CO2/95%. After 18-20 hours, the media was exchanged with fresh Adipocyte Maintenance Medium containing test peptides and incubated for 1 h at 37° C. in a humidified atmosphere of 5% CO2/95%. After 1 h media was exchanged with Assay Buffer (Zen-Bio) containing forskolin (1 μM) (added to all samples except untreated controls) and test peptides. Cells were incubated for a further 3 hours at 37° C. in a humidified atmosphere of 5% CO2/95%. Free fatty acid concentrations in the media were determined using a Free Fatty Acid Assay Kit (Zen-Bio) according to the manufacturer's instructions using a plate reader (540 nm). Absorbance values were corrected for untreated background and expressed relative to forskolin treated cells. Treatment with forskolin (1 μM) alone was used as the free fatty acid level stimulatory control. The relative standard deviation of the forskolin control was <10%. […] Free fatty acid levels for insulin (100 nM) treatment were <9% of the forskolin control value.

Human Primary Adipocytes [3] = assay: Free fatty acid levels in cultured human primary adipocytes, isoproterenol stimulated (Example 4); assay type: cell-based; details: test peptides 25 μM; isoproterenol 1 nM
Protocol: Human primary adipocytes were seeded at 5,000-100,000 cells per well on 96-well, 48-well, or 24-well plates in Pre-adipocyte Medium (Zen-Bio, Durham, N.C.) and grown to confluence at 37° C. in a humidified atmosphere of 5% CO2/95% air. Two days after confluence, cells were placed in Adipocyte Differentiation Medium (Zen-Bio, Durham, N.C.) and cultured for three additional days at 37° C. in a humidified atmosphere of 5% CO2/95% air. The culture media was then replaced with Adipocyte Maintenance Medium (Zen-Bio) and the cells were maintained for an additional 11-21 days at 37° C. in a humidified atmosphere of 5% CO2/95% air with partial medium replacement every other day. Following 14-24 days of differentiation, test peptides were added at a final concentration of 25 μM and incubated for 18-20 hours in Adipocyte Maintenance Medium at 37° C. in a humidified atmosphere of 5% CO2/95%. After 18-20 hours, the media was exchanged with fresh Adipocyte Maintenance Medium containing test peptides and incubated for 1 h at 37° C. in a humidified atmosphere of 5% CO2/95%. After 1 h media was exchanged with Assay Buffer (Zen-Bio) containing isoproterenol (1 nM) (added to all samples except untreated controls) and test peptides. Cells were incubated for a further 3 hours at 37° C. in a humidified atmosphere of 5% CO2/95%. Free fatty acid concentrations in the media were determined using a Free Fatty Acid Assay Kit (Zen-Bio) according to the manufacturer's instructions using a plate reader (540 nm). Absorbance values were corrected for untreated background and expressed relative to isoproterenol treated cells. Treatment with isoproterenol (1 nM) alone was used as the free fatty acid level stimulatory control. The relative standard deviation of the isoproterenol control was <14%. […] Free fatty acid levels for insulin (100 nM) treatment were <5% of the isoproterenol control value.

Human Primary Adipocytes [4] = assay: Free fatty acid levels in cultured human primary adipocytes, forskolin stimulated (Example 5); assay type: cell-based; details: test peptides 25 μM; forskolin 1 μM
Protocol: Human primary adipocytes were seeded at 5,000-100,000 cells per well on 96-well, 48-well, or 24-well plate in Pre-adipocyte Medium (Zen-Bio, Durham, N.C.) and grown to confluence at 37° C. in a humidified atmosphere of 5% CO2/95% air. Two days after confluence, cells were placed in Adipocyte Differentiation Medium (Zen-Bio, Durham, N.C.) and cultured for three additional days at 37° C. in a humidified atmosphere of 5% CO2/95% air. The culture media was then replaced with Adipocyte Maintenance Medium (Zen-Bio) and the cells were maintained for an additional 11-21 days at 37° C. in a humidified atmosphere of 5% CO2/95% air with partial medium replacement every other day. Following 14-24 days of differentiation, test peptides were added at a final concentration of 25 μM and incubated for 18-20 hours in Adipocyte Maintenance Medium at 37° C. in a humidified atmosphere of 5% CO2/95%. After 18-20 hours, the media was exchanged with fresh Adipocyte Maintenance Medium containing test peptides and incubated for 1 h at 37° C. in a humidified atmosphere of 5% CO2/95%. After 1 h media was exchanged with Assay Buffer (Zen-Bio) containing forskolin (1 μM) (added to all samples except untreated controls) and test peptides. Cells were incubated for a further 3 hours at 37° C. in a humidified atmosphere of 5% CO2/95%. Free fatty acid concentrations in the media were determined using a Free Fatty Acid Assay Kit (Zen-Bio) according to the manufacturer's instructions using a plate reader (540 nm). Absorbance values were corrected for untreated background and expressed relative to forskolin treated cells. Treatment with forskolin (1 μM) alone was used as the free fatty acid level stimulatory control. The relative standard deviation of the forskolin control was <20%. […] Free fatty acid levels for insulin (100 nM) treatment were <8% of the forskolin control value.

[5] = tested on: Diet Induced Obese (DIO) mice; assay: Body weight, blood glucose and fat mass in Diet Induced Obese mice, 10 days (Example 6); assay type: in vivo, Male C57BL/6 mice; details: male DIO mice; 10 days twice daily intraperitoneal 15 mg/kg; N = 8; mean
Protocol: Animals were randomized to treatment groups based on blood glucose levels and body weight. The peptides of the invention were administered to two groups of male DIG mice once or twice daily by subcutaneous or intraperitoneal injection at a dose of 15 mg/kg/dose for 10 days (N=8 animals per treatment group). An additional group of male DIG mice (n=8) received vehicle (water or saline) alone. Body weight, blood glucose levels and food intake were monitored. Body mass distribution (fat vs lean) was determined by quantitative whole body NMR prior to dosing and at the end of dosing.

[6] = Stability in mouse plasma, peptides 100 uM (Example 14); assay type: in vitro ADME; details: mouse plasma 37° C., peptide 100 uM; for remaining at 0.25 h, 100 uM / remaining at 0.5 h, 100 uM / remaining at 1 h, 100 uM / remaining at 2 h, 100 uM / remaining at 3 h, 100 uM: pooled mouse plasma; for remaining at 0.25 h, 100 uM: 15 min, read-out: % Remaining at Each Time Point: 15 min; for remaining at 0.5 h, 100 uM: 30 min, read-out: % Remaining at Each Time Point: 30 min; for remaining at 1 h, 100 uM: 60 min, read-out: % Remaining at Each Time Point: 60 min; for remaining at 2 h, 100 uM: 120 min, read-out: % Remaining at Each Time Point: 120 min; for remaining at 3 h, 100 uM: 180 min, read-out: % Remaining at Each Time Point: 180 min
Protocol: Peptides (100 uM) were incubated in pooled mouse plasma at 37° C. and samples were removed and immediately analyzed for the concentration of intact peptide by LC/MS/MS over the course of 3 hours. The percent of peptide remaining in plasma at each time point was calculated relative to the initial peak area (Table 12).

[7] = Stability in mouse plasma, peptides 10 uM (Example 15); assay type: in vitro ADME; details: mouse plasma 37° C., peptide 10 uM
Protocol: Peptides (10 uM) were incubated in pooled mouse plasma at 37° C. and samples were removed and immediately analyzed for the concentration of intact peptide by LC/MS/MS over the course of 3 hours. The percent of peptide remaining in plasma at each time point was calculated relative to the initial peak area (Table 13).

Substance | Free Fatty Acid Levels in 3T3-L1 Adipocytes Expressed as a Percent of Isoproterenol Control: Percent of Control Value (3T3-L1 Adipocytes [1]) | Free Fatty Acid Levels in 3T3-L1 Adipocytes Expressed as a Percent of Forskolin Control: Percent of Control Value (3T3-L1 Adipocytes [2]) [%] | Free Fatty Acid Levels in Human Primary Adipocytes Expressed as a Percent of Isoproterenol Control: Percent of Control Value (Human Primary Adipocytes [3]) [%] | Free Fatty Acid Levels in Human Primary Adipocytes Expressed as a Percent of Forskolin Control: Percent of Control Value (Human Primary Adipocytes [4]) [%] | Difference from Vehicle Control: Decrease from Baseline in Blood Glucose [5] [mg/dL] | Difference from Vehicle Control: Decrease from Baseline in Body Weight (%) [5] [%] | Difference from Vehicle Control: Decrease from Baseline in Fat Mass [5] [g] | % Remaining at Each Time Point: 0 min [6] [%] | remaining at 0.25 h, 100 uM [6] [%] | remaining at 0.5 h, 100 uM [6] [%] | remaining at 1 h, 100 uM [6] [%] | remaining at 2 h, 100 uM [6] [%] | remaining at 3 h, 100 uM [6] [%] | % Remaining at Each Time Point: 0 min ([7]; 0 min) [%] | remaining at 0.25 h, 10 uM ([7]; pooled mouse plasma, 15 min, read-out: % Remaining at Each Time Point: 15 min) [%] | remaining at 0.5 h, 10 uM ([7]; pooled mouse plasma, 30 min, read-out: % Remaining at Each Time Point: 30 min) [%] | remaining at 1 h, 10 uM ([7]; pooled mouse plasma, 60 min, read-out: % Remaining at Each Time Point: 60 min) [%] | remaining at 2 h, 10 uM ([7]; pooled mouse plasma, 120 min, read-out: % Remaining at Each Time Point: 120 min) [%] | remaining at 3 h, 10 uM ([7]; pooled mouse plasma, 180 min, read-out: % Remaining at Each Time Point: 180 min) [%]
Ac-RWQEMGYIFYPRKLR-NH2 [compound 52] | 85.6% and 99.5% | 88.0 | 126 | 107 | – | – | – | – | – | – | – | – | – | – | – | – | – | – | –
Ac-YIFYPRKLR-NH2 [compound 58] | 97.3% | – | 164 | 134 | – | – | – | – | – | – | – | – | – | – | – | – | – | – | –
H-MRAQEMGYIFYPRKLR-OH [compound 8] | – | – | 22.2 | 107 | -20.0 | −0.24 | -0.20 | 100 | 13.2 | 11.2 | 10.1 | 11.7 | 9.81 | – | – | – | – | – | –
H-MRWQEMGYIFYPR-OH [compound 47] | 24.5% | 45.3 | 60.5 | 89.9 | – | – | – | 100 | 56.7 | 49 | 38.9 | 23.8 | 18.3 | – | – | – | – | – | –
H-MRWQEMGYIFYPRK(Ac)LR-OH [compound 69] | 61.3% | – | 53.0 | 119 | – | – | – | 100 | 33.1 | 37.7 | 19.3 | 5.96 | 2.11 | – | – | – | – | – | –
H-MRWQEMGYIFYPRKL-OH [compound 45] | 37.9% | – | 22.2 | 125 | 6.00 | −2.01 | -0.69 | – | – | – | – | – | – | 100 | 66.5 | 33 | 7.31 | 0 | 0
H-QEMGYIFYPRKLR-OH [compound 40] | 83.1% | 96.1 | 122 | 107 | – | – | – | – | – | – | – | – | – | – | – | – | – | – | –
